Assay results from paper PMC3156232, “Rapid Probing of Biological Surfaces with a Sparse-Matrix Peptide Library” (PLoS ONE, 2011).
Entries after “also recorded” stand apart in the source; their conditions may differ.

Tests used:
[1] = Tooth section binding by confocal laser scanning microscopy; settings: sectioned human teeth, FAM-labeled peptide, CLSM; result in words
Source text: For tooth binding assays, FAM-labeled pilot matrix peptides were collected into four pools of 9 peptides each. Peptides were screened by exposing pools to sections taken from a collection of anonymous human teeth (extracted during normal clinical practice), followed by visualization of the samples by Confocal Laser Scanning Microscopy (CLSM).

[2] = tested on: wild type S. mutans (UA140); experiment: Fluorescence microscopy binding to S. mutans; parameters: species or system Streptococcus mutans; settings: FAM-labeled peptide, result in words
Experimental: (§1) Peptide samples were prepared at a concentration of 25 µM for screening. For bacterial and yeast binding assays, cells were grown overnight, washed, and immobilized in a polylysine-coated 96-well plate, except in the case of S. mutans biofilms, where 10^5 cells were inoculated into 400 µl of Todd Hewitt broth in 48-well plates and biofilms were grown anaerobically for 24 hr. FAM-labeled peptides were applied to immobilized cell, yeast, and bacterial cultures, incubated for 10 minutes and washed extensively to remove unbound peptide. Samples were visualized by fluorescence microscopy (Nikon E400). For each peptide, both brightfield and fluorescence images were collected with the manufacturer-supplied software (SPOT, Diagnostic Instruments, Sterling Heights, MI). Post-collection, the locations of cells and background regions were determined using the brightfield images; those regions were then selected in the fluorescence images for quantitation of pixel values for determination of relative fluorescence intensities using The GIMP (http://www.gimp.org), [33]. Due to the variation in the levels of binding of the peptide to the well, these values are represented as bacterial fluorescence/background fluorescence, in order to remove the effects of precipitation or nonspecific binding from the final measurement.

S. mutans gtfB mutant = experiment: Fluorescence microscopy binding to surface mutant; parameters: species or system Streptococcus mutans; settings: FAM-labeled peptide, result in words
Experimental: as §1

wild type M. xanthus = experiment: Fluorescence microscopy screening of FAM-labeled peptides against immobilized cells; assay type: binding, Myxococcus xanthus; settings: FAM-labeled peptide 25 µM, 10 minutes, result in words
Experimental: as §1

S. aureus = experiment: as above; assay type: binding, Staphylococcus aureus; settings: FAM-labeled peptide 25 µM, 10 minutes, washed, result in words
Experimental: as §1

Sequence | Binding to tooth dentin [1] | Binding to wild type S. mutans [2] | Binding to S. mutans gtfB mutant unable to synthesize extracellular glucan (S. mutans gtfB mutant) | Binding to wild-type M. xanthus cells (fluorescence staining) (wild type M. xanthus) | Binding to immobilized S. aureus cells (fluorescence staining) (S. aureus) | Binding to tooth enamel and enamel-proximal region of the dentino-enamel junction [1]
AMQDAMNEM [Pilot Library E6] | bound selectively to dentin | – | – | – | – | –
IWHSWISTW [sma24] | – | good binding activity and specificity; also recorded: strong binding | reduced binding | – | – | –
AMKDAMERM [Pilot Library E4] | no obvious binding | – | – | preferentially binds | preferentially binds | clear binding
